Where “and” joins values, the source holds several entries; their conditions need not be identical. Equal values may be shown once.
Columns and labels:
Experiment in all cases: biochemical
Format in all cases: biochemical
various kinases [1] = target: various kinases (Homo sapiens, UniProt O15264); details: MAPK13 (p38 delta)
various kinases [2] = target: various kinases (Homo sapiens, UniProt O75914); details: PAK3
various kinases [3] = target: various kinases (Homo sapiens, UniProt P08631); details: HCK
various kinases [4] = target: various kinases (Homo sapiens, UniProt P14616); details: INSRR (IRR)
various kinases [5] = target: various kinases (Homo sapiens, UniProt P15735); details: PHKG2
various kinases [6] = target: various kinases (Homo sapiens, UniProt P22607, V555M); details: FGFR3 V555M
various kinases [7] = target: various kinases (Homo sapiens, UniProt P23443); details: kinase RPS6KB1 (p70S6K); ZLYTE
Sequence of various kinases (Homo sapiens, UniProt P23443) (P23443 whole entry): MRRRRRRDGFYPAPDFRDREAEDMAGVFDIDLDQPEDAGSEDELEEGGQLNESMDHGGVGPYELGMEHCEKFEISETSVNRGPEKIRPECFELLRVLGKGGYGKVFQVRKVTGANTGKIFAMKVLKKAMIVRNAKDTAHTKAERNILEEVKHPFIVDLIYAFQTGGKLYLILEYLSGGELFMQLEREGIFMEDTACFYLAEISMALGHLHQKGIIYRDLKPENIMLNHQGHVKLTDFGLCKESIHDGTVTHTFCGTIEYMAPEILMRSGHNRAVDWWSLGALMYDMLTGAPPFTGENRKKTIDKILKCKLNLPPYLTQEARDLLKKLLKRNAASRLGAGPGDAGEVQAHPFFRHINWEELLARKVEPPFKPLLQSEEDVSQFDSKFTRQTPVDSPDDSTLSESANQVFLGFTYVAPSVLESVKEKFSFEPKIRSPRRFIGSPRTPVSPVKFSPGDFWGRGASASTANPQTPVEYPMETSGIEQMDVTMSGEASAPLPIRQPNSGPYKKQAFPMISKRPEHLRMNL

various kinases [8] = target: various kinases (Homo sapiens, UniProt P24723); details: kinase PRKCH (PKC eta); ZLYTE
Sequence of various kinases (Homo sapiens, UniProt P24723) (P24723 whole entry): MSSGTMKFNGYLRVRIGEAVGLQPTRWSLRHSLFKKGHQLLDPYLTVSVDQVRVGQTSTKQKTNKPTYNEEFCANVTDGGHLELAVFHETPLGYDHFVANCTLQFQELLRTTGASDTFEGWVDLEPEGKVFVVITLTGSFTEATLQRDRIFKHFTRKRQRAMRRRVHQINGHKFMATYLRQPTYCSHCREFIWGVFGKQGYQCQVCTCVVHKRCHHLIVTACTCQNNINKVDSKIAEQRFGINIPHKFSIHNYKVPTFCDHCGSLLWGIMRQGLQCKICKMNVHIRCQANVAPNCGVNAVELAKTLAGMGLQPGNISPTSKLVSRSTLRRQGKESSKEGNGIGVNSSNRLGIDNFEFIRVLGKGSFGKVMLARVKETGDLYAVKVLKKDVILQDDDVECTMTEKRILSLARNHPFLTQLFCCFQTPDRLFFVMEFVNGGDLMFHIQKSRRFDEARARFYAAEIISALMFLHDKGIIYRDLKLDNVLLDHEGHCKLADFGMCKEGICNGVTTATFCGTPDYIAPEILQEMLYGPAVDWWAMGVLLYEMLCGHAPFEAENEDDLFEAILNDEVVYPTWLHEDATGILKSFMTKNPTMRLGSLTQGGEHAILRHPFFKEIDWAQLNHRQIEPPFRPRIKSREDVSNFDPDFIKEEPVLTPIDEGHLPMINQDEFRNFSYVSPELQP

various kinases [9] = target: various kinases (Homo sapiens, UniProt P29322); details: EPHA8
various kinases [10] = target: various kinases (Homo sapiens, UniProt P29323); details: EPHB2
various kinases [11] = target: various kinases (Homo sapiens, UniProt P29597); details: kinase TYK2; ZLYTE
Sequence of various kinases (Homo sapiens, UniProt P29597) (P29597 whole entry): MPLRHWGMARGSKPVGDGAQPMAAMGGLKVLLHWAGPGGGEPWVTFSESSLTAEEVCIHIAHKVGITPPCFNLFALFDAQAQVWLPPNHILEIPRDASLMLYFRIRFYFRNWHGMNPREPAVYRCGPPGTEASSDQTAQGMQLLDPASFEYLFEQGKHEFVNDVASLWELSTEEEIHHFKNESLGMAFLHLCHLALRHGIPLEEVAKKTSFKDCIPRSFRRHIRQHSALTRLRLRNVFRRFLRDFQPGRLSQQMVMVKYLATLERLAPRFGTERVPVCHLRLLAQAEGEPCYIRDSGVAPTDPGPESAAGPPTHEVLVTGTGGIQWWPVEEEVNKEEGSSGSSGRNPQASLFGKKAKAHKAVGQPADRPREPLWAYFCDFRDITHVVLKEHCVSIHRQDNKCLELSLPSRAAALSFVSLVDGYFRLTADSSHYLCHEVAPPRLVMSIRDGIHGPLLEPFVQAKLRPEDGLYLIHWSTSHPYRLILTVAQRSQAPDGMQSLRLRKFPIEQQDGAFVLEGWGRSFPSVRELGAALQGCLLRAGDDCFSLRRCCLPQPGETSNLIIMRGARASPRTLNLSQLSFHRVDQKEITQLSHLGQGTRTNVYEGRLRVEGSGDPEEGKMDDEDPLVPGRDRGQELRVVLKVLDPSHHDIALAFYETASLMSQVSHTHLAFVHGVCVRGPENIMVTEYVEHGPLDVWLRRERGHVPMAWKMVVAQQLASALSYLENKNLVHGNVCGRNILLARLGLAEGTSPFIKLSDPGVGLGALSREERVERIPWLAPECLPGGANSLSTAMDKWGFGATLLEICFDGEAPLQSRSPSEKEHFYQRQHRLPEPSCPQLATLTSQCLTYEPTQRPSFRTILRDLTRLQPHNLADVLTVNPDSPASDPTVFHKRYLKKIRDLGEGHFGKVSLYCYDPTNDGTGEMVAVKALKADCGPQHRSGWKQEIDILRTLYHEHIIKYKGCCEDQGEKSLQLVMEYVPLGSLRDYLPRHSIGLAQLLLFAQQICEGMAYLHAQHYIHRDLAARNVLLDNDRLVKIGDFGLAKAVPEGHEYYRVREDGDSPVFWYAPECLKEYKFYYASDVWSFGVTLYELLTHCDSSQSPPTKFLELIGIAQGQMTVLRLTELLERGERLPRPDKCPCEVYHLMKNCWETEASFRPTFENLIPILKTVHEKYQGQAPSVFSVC

various kinases [12] = target: various kinases (Homo sapiens, UniProt P36888); details: FLT3
various kinases [13] = target: various kinases (Homo sapiens, UniProt P78368); details: CSNK1G2 (CK1 gamma 2)
various kinases [14] = target: various kinases (Homo sapiens, UniProt Q13153); details: PAK1
various kinases [15] = target: T1, various kinases (Homo sapiens, UniProt Q15139); details: kinase PRKD1 (PKC mu); ZLYTE
T1 sequence (Q15139 1-912): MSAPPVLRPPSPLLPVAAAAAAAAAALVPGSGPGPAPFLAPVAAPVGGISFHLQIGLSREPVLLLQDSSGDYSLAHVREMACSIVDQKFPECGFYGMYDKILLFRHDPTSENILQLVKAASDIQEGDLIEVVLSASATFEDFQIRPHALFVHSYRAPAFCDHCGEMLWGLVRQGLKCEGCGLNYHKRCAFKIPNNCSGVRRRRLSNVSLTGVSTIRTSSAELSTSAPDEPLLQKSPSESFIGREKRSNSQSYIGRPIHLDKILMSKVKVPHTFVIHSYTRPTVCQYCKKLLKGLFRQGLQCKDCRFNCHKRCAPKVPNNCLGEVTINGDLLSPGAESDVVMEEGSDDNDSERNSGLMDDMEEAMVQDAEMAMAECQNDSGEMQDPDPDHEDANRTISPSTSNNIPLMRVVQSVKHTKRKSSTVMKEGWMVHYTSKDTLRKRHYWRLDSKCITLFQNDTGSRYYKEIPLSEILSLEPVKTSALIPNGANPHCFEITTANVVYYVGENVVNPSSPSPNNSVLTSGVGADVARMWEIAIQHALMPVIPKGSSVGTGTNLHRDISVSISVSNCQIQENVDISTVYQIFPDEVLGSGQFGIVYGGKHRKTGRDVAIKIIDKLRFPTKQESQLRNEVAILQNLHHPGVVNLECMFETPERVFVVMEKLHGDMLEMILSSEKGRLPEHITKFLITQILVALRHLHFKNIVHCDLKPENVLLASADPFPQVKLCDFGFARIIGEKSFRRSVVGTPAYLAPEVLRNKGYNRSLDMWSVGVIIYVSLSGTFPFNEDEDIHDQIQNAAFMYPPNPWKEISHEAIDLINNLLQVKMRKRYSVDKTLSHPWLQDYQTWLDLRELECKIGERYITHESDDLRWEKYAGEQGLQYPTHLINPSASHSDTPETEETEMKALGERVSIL

various kinases [16] = target: various kinases (Homo sapiens, UniProt Q16644); details: MAPKAPK3
various kinases [17] = target: various kinases (Homo sapiens, UniProt Q7KZI7); details: MARK2
Sequence of various kinases (Homo sapiens, UniProt Q7KZI7) (Q7KZI7 whole entry): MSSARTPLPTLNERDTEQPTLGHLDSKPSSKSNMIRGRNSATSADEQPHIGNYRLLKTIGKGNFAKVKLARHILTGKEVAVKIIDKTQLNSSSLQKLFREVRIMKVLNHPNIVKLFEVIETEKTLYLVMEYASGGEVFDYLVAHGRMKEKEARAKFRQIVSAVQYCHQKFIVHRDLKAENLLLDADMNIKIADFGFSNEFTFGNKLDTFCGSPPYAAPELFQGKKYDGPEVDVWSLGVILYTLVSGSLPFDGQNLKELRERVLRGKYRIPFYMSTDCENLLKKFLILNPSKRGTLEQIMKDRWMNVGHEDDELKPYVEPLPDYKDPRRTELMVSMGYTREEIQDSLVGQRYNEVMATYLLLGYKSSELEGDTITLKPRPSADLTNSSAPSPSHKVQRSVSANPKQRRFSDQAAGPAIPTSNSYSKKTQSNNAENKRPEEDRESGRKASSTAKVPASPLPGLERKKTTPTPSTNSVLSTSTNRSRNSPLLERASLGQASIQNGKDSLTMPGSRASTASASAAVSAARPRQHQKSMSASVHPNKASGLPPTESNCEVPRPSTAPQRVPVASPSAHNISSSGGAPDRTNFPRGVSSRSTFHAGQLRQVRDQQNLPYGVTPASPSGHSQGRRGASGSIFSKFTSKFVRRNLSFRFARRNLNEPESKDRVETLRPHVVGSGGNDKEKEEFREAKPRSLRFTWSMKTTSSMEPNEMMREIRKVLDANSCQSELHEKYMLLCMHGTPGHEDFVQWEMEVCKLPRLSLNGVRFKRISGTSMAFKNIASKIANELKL

various kinases [18] = target: various kinases (Homo sapiens, UniProt Q8TDX7); details: NEK7
Sequence of various kinases (Homo sapiens, UniProt Q8TDX7) (Q8TDX7 whole entry): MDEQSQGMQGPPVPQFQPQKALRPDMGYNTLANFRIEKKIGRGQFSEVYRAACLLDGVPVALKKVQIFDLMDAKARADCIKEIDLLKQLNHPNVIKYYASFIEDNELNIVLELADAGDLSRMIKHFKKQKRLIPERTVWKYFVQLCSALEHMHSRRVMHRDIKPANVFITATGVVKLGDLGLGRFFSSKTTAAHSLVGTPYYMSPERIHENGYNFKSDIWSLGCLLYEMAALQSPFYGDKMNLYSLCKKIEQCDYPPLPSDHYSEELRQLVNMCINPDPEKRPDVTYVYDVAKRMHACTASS

various kinases [19] = target: various kinases (Homo sapiens, UniProt Q8WTQ7); details: GRK7
Sequence of various kinases (Homo sapiens, UniProt Q8WTQ7) (Q8WTQ7 whole entry): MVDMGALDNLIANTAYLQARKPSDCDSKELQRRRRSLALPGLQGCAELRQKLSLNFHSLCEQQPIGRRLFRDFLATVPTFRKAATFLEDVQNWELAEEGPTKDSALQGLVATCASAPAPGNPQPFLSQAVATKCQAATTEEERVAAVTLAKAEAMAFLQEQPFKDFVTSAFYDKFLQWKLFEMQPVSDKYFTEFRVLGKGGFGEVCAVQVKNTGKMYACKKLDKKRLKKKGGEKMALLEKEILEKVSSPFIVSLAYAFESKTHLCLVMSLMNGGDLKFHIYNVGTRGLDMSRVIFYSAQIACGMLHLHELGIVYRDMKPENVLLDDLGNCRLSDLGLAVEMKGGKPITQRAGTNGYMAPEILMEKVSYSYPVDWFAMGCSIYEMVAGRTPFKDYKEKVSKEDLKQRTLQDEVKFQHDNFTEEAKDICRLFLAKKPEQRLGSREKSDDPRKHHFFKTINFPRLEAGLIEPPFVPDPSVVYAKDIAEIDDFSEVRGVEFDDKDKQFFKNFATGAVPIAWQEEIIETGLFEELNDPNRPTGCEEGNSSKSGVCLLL

various kinases [20] = target: various kinases (Homo sapiens, UniProt Q96PY6); details: NEK1
various kinases [21] = target: various kinases (Homo sapiens, UniProt Q9UPE1); details: kinase STK23 (MSSK1); ZLYTE
Sequence of various kinases (Homo sapiens, UniProt Q9UPE1) (Q9UPE1 whole entry): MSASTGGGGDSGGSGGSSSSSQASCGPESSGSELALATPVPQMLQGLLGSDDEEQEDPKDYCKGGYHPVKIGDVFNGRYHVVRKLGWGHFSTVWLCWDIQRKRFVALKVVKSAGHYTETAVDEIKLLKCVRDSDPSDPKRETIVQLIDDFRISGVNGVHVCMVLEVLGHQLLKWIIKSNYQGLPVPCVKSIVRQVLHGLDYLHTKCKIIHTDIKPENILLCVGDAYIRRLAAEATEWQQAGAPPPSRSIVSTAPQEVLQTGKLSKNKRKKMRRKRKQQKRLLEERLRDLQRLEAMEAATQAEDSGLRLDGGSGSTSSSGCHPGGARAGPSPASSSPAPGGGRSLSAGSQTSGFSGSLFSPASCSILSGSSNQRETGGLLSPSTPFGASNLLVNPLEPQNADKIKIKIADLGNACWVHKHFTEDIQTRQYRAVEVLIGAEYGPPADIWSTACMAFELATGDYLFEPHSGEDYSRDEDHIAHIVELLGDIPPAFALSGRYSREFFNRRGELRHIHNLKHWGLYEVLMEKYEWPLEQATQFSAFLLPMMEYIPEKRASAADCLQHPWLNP

Sequence of various kinases (Homo sapiens, UniProt O15264) (O15264 whole entry): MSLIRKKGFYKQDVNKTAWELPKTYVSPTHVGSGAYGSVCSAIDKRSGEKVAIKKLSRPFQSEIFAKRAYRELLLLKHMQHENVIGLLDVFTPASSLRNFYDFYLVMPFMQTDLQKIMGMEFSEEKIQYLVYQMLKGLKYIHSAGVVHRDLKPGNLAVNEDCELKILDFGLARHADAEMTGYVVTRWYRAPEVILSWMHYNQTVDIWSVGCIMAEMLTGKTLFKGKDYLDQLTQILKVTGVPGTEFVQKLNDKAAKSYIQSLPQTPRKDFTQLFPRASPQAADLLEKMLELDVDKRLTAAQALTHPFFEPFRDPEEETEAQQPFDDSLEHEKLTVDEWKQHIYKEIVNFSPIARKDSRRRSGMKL

COc1ccc2c(c1)[C@]1(C[C@H]1c1ccc3c(/C=C/c4ccc(CN5C[C@@H](C)O[C@@H](C)C5)cc4)n[nH]c3c1)C(=O)N2 [CFI-400945]
% Inhibition (various kinases [1]): 1% and 4% | % Inhibition (various kinases [2]): 11% and 5% | % Inhibition (various kinases [3]): 13% and 11% | % Inhibition (various kinases [4]): 4% and 6% | % Inhibition (various kinases [5]): 8% and 7% | % Inhibition (various kinases [6]): 56% | % Inhibition Average (various kinases [7]): 7% | % Inhibition Duplicate #1 (various kinases [7]): 6% | % Inhibition Duplicate #2 (various kinases [7]): 8% | % Inhibition Average (various kinases [8]): -3% | % Inhibition Duplicate #1 (various kinases [8]): -10% | % Inhibition Duplicate #2 (various kinases [8]): 3% | % Inhibition (various kinases [9]): -5% and 0% | % Inhibition (various kinases [10]): 5% | % Inhibition Average (various kinases [11]): 2% | % Inhibition Duplicate #1 (various kinases [11]): 2% | % Inhibition Duplicate #2 (various kinases [11]): 2% | % Inhibition (various kinases [12]): 74% | IC50 (various kinases [12]): 59.7 nM | % Inhibition (various kinases [13]): 1% and 3% | % Inhibition (various kinases [14]): 11% and 6% | % Inhibition Average (various kinases [15]): 0% | % Inhibition Duplicate #1 (various kinases [15]): -1% | % Inhibition Duplicate #2 (various kinases [15]): 1% | % Inhibition (various kinases [16]): 2% and -4% | % Inhibition (various kinases [17]): 7% and 2% | % Inhibition (various kinases [18]): 0% and 6% | % Inhibition (various kinases [19]): 13% and 12% | % Inhibition (various kinases [20]): 7% and 2% | % Inhibition Average (various kinases [21]): -1% | % Inhibition Duplicate #1 (various kinases [21]): -1% | % Inhibition Duplicate #2 (various kinases [21]): -2%

— article PMC5762315, “Inhibition of polo-like kinase 4 (PLK4): a new therapeutic option for rhabdoid tumors and pediatric medulloblastoma” (Oncotarget, 2017)
